From patent US8030478B2, “Method for nucleic acid replication and novel artificial base pairs” (priority 2005, dated 2011)
Like-named read-outs stand apart in the source and are kept apart here.

Tests used:
T7 RNA polymerase = T7 RNA polymerase (Escherichia phage T7, UniProt P00573); settings: for Composition of nucleotide incorporated as 5′ neighbor of A: Cp / Composition of nucleotide incorporated as 5′ neighbor of A: Up / Composition of nucleotide incorporated as 5′ neighbor of A: Ap / Composition of nucleotide incorporated as 5′ neighbor of A: Np (Pa′p) / Composition of nucleotide incorporated as 5′ neighbor of A: Gp: [α-32P]ATP; for Composition of nucleotide incorporated as 5′ neighbor of U: Np (Pa′p) / Composition of nucleotide incorporated as 5′ neighbor of U: Ap / Composition of nucleotide incorporated as 5′ neighbor of U: Gp / Composition of nucleotide incorporated as 5′ neighbor of U: Up / Composition of nucleotide incorporated as 5′ neighbor of U: Cp: [α-32P]UTP
Description: Transcription (20 μl) was accomplished in 40 mM Tris-HCl buffer (pH 8.0) containing 24 mM MgCl2, 2 mM spermidine, 5 mM DTT, 0.01% Triton X-100, 1-3 mM each natural NTP, 0-3 mM Pa′TP, 0-3 mM DsTP, 10 mM GMP, 2 μM template DNA (for 17-mer transcript synthesis) or 0.5 μM template DNA (for tRNA transcript synthesis), and 2.5 units/μl T7 RNA polymerase (TAKARA). […] For nucleotide composition analysis in transcripts (Non-patent Documents 17 and 33), the transcripts were internally labeled with 2 μCi [α-^32P]UTP or [α-^32P]ATP (Amersham). After the transcription, the products were digested with 0.75 units of RNase T2 at 37° C. for 2 hours in 10 μl of 15 mM sodium acetate buffer (pH 4.5). For 17-mer analysis, 0.05 A260 units of E. coli tRNA (Sigma) was added to the digestion reaction solution. The digestion products were analyzed by 2D-TLC (HPTLC plate, 100×100 mm, Merck). The developing solvents used for the first and second dimensions were isobutyric acid-ammonia-water (66:1:33 v/v/v) and isopropyl alcohol-HCl-water (70:15:15 v/v/v or 75:15:10 v/v/v for Pa′ transcripts), respectively. Spots of the labeled nucleotides on the TLC plate were analyzed with a bio-imaging analyzer.
The internally ^32P-labeled transcripts were digested with Rnase T2, and the resulting labeled nucleoside 3′-monophosphates were analyzed by 2D thin-layer chromatography (2D-TLC).

[1] = biological target: T1, Klenow fragment lacking exonuclease activity (KF exo−) (Escherichia coli, UniProt P00582, D355A/E357A); assay type: biochemical, E. coli; settings: for Efficiency (Vmax/KM) / Km / Vmax: temp35N-1, 37° C.; for inserted products (KM, Vmax n.d.): temp35N-2, 20 minutes, 1500 μM nucleoside 5′-triphosphate, 50 nM enzyme
T1 construct: enzyme solution of the Klenow fragment lacking exonuclease activity (KF exo^−, Amersham USB); purchased Amersham USB
Description: The single nucleotide insertion experiment was performed as described in documents (Non-patent Documents 30-32). A primer (20-mer) labeled with 6-carboxylfluorescein at the 5′-end was annealed with template DNA (35-mer) by heating at 95° C. and slow cooling to 4° C. in 100 mM Tris-HCl (pH 7.5) buffer containing 20 mM MgCl2, 2 mM DTT and 0.1 mg/ml bovine serum albumin. The primer-template duplex solution (10 μM, 5 μl) was mixed with 2 μl enzyme solution of the Klenow fragment lacking exonuclease activity (KF exo^−, Amersham USB). After the mixture was incubated for 2 minutes, each dNTP solution (3 μl) was added to this solution to start the reaction at 37° C. The amount of the enzyme used (5-50 nM), the reaction time (1-35 minutes) and the gradient concentration of each dNTP (0.3-1500 μM) were adjusted to ensure conditions giving 25% or less products. The reaction was stopped with 10 μl stop solution (95% formamide and 20 mM EDTA), and the mixture was immediately heated at 75° C. for 3 minutes. The diluted products were analyzed in an automated ABI377 DNA sequencer equipped with GeneScan software (version 3.0) (Non-patent Document 32). The relative velocity (v0) was calculated by dividing the extent of reaction by the reaction time, and then normalized to the enzyme concentration (20 nM) for the various enzyme concentrations used. Kinetic parameters (KM and Vmax) were obtained from Hanes-Woolf plots of [dNTP]/v0 against [dNTP].
Each parameter was averaged from 3 to 8 data sets.

[2] = Entry 7, template temp35Ds-3, natural NTP 1 mM, Pa′ 1 mM, theoretical [0]
[3] = Entry 7, template temp35Ds-3, natural NTP 1 mM, Pa′ 1 mM, theoretical [1]
[4] = Entry 8, template temp35Ds-3, natural NTP 1 mM, Pa′ 3 mM, theoretical [0]
[5] = Entry 8, template temp35Ds-3, natural NTP 1 mM, Pa′ 3 mM, theoretical [1]
[6] = Entry 9, template temp35A-3, natural NTP 1 mM, Pa′ 1 mM, theoretical [0]
[7] = Entry 9, template temp35A-3, natural NTP 1 mM, Pa′ 1 mM, theoretical [1]
[8] = Entry 10, template temp35A-3, natural NTP 1 mM, Pa′ 3 mM, theoretical [0]
[9] = Entry 10, template temp35A-3, natural NTP 1 mM, Pa′ 3 mM, theoretical [1]
[10] = Entry 11, template temp35G-3, natural NTP 1 mM, Pa′ 1 mM, theoretical [0]
[11] = Entry 11, template temp35G-3, natural NTP 1 mM, Pa′ 1 mM, theoretical [1]
[12] = Entry 12, template temp35G-3, natural NTP 1 mM, Pa′ 3 mM, theoretical [0]
[13] = Entry 12, template temp35G-3, natural NTP 1 mM, Pa′ 3 mM, theoretical [1]
[14] = Entry 25, template DNA12, natural NTP 3 mM, Pa′ 3 mM, theoretical [6]
[15] = Entry 27, template DNAcont4, natural NTP 3 mM, Pa′ 3 mM, theoretical [6]
[16] = Entry 32, template DNA11, natural NTP 3 mM, Pa′ 3 mM, theoretical [4]
[17] = Entry 33, template DNA12, natural NTP 3 mM, Pa′ 3 mM, theoretical [4]
[18] = Entry 35, template DNAcont4, natural NTP 3 mM, Pa′ 3 mM, theoretical [4]

Sequence of T7 RNA polymerase (P00573 whole entry, the tested form may be a part): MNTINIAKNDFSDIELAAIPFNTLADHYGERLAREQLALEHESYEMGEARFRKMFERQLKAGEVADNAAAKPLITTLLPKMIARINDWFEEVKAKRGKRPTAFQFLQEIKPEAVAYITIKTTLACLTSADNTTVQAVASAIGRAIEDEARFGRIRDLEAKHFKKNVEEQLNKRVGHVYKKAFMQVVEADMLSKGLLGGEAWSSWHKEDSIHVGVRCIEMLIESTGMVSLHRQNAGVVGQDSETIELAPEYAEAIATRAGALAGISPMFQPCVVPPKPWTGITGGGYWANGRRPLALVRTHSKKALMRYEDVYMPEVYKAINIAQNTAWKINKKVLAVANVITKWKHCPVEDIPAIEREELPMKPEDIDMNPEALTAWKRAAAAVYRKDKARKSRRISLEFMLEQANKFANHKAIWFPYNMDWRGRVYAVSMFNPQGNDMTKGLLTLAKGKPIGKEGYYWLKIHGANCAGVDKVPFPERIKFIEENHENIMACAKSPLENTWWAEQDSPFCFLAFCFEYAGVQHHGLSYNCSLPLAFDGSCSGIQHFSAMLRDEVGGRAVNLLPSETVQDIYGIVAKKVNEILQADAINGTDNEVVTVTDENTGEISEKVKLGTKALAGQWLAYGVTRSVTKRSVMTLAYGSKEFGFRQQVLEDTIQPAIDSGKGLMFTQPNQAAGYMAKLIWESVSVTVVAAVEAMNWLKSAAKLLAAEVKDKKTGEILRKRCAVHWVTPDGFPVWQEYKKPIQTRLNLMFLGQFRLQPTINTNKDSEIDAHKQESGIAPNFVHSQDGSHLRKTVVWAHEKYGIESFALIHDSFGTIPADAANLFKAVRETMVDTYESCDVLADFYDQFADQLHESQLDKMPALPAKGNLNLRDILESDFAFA
T1 sequence (P00582 324-928 D355A/E357A): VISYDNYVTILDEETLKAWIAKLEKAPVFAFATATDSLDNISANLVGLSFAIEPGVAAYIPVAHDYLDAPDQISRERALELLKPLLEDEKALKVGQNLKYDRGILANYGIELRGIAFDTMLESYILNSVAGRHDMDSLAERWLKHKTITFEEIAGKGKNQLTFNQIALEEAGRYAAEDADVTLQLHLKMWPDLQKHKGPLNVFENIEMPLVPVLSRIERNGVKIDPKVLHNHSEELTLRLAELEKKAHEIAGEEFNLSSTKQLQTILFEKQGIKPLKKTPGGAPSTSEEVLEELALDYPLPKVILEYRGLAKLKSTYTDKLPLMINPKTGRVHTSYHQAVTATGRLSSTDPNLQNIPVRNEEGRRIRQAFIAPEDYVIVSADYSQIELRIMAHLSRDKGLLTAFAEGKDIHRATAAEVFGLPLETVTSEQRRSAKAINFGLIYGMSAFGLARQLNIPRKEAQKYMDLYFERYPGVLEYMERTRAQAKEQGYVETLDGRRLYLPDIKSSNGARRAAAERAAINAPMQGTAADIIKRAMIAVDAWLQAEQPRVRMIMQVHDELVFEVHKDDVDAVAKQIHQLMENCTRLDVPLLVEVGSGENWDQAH

CC#Cc1cc(C=O)n([C@@H]2O[C@H](COP(=O)(O)OP(=O)(O)OP(=O)(O)O)[C@@H](O)[C@H]2O)c1 [Pa′TP, 4-Propynyl-1-(β-D-ribofuranosyl)pyrrole-2-carbaldehyde 5′-triphosphate]
Composition of nucleotide incorporated as 5′ neighbor of A: Cp (T7 RNA polymerase; [2]): 0.01 [0]
Composition of nucleotide incorporated as 5′ neighbor of A: Up (T7 RNA polymerase; [2]): 0.02 [0]
Composition of nucleotide incorporated as 5′ neighbor of A: Ap (T7 RNA polymerase; [3]): 1.03 [1]
Composition of nucleotide incorporated as 5′ neighbor of A: Np (Pa′p) (T7 RNA polymerase; [3]): 0.95 [1]
Composition of nucleotide incorporated as 5′ neighbor of A: Gp (T7 RNA polymerase; Entry 7, template temp35Ds-3, natural NTP 1 mM, Pa′ 1 mM, theoretical [2]): 2.00 [2]
Composition of nucleotide incorporated as 5′ neighbor of A: Cp (T7 RNA polymerase; [4]): 0.01 [0]
Composition of nucleotide incorporated as 5′ neighbor of A: Up (T7 RNA polymerase; [4]): 0.02 [0]
Composition of nucleotide incorporated as 5′ neighbor of A: Ap (T7 RNA polymerase; [5]): 1.01 [1]
Composition of nucleotide incorporated as 5′ neighbor of A: Np (Pa′p) (T7 RNA polymerase; [5]): 0.97 [1]
Composition of nucleotide incorporated as 5′ neighbor of A: Gp (T7 RNA polymerase; Entry 8, template temp35Ds-3, natural NTP 1 mM, Pa′ 3 mM, theoretical [2]): 1.99 [2]
Composition of nucleotide incorporated as 5′ neighbor of A: Cp (T7 RNA polymerase; [6]): n.d. [0]
Composition of nucleotide incorporated as 5′ neighbor of A: Np (Pa′p) (T7 RNA polymerase; [6]): n.d. [0]
Composition of nucleotide incorporated as 5′ neighbor of A: Ap (T7 RNA polymerase; [7]): 0.99 [1]
Composition of nucleotide incorporated as 5′ neighbor of A: Up (T7 RNA polymerase; [7]): 1.03 [1]
Composition of nucleotide incorporated as 5′ neighbor of A: Gp (T7 RNA polymerase; Entry 9, template temp35A-3, natural NTP 1 mM, Pa′ 1 mM, theoretical [2]): 1.98 [2]
Composition of nucleotide incorporated as 5′ neighbor of A: Cp (T7 RNA polymerase; [8]): 0.01 [0]
Composition of nucleotide incorporated as 5′ neighbor of A: Np (Pa′p) (T7 RNA polymerase; [8]): n.d. [0]
Composition of nucleotide incorporated as 5′ neighbor of A: Ap (T7 RNA polymerase; [9]): 0.99 [1]
Composition of nucleotide incorporated as 5′ neighbor of A: Up (T7 RNA polymerase; [9]): 1.00 [1]
Composition of nucleotide incorporated as 5′ neighbor of A: Gp (T7 RNA polymerase; Entry 10, template temp35A-3, natural NTP 1 mM, Pa′ 3 mM, theoretical [2]): 1.99 [2]
Composition of nucleotide incorporated as 5′ neighbor of A: Np (Pa′p) (T7 RNA polymerase; [10]): n.d. [0]
Composition of nucleotide incorporated as 5′ neighbor of A: Up (T7 RNA polymerase; [10]): 0.01 [0]
Composition of nucleotide incorporated as 5′ neighbor of A: Ap (T7 RNA polymerase; [11]): 1.01 [1]
Composition of nucleotide incorporated as 5′ neighbor of A: Cp (T7 RNA polymerase; [11]): 1.00 [1]
Composition of nucleotide incorporated as 5′ neighbor of A: Gp (T7 RNA polymerase; Entry 11, template temp35G-3, natural NTP 1 mM, Pa′ 1 mM, theoretical [2]): 1.98 [2]
Composition of nucleotide incorporated as 5′ neighbor of A: Np (Pa′p) (T7 RNA polymerase; [12]): n.d. [0]
Composition of nucleotide incorporated as 5′ neighbor of A: Up (T7 RNA polymerase; [12]): 0.01 [0]
Composition of nucleotide incorporated as 5′ neighbor of A: Ap (T7 RNA polymerase; [13]): 1.00 [1]
Composition of nucleotide incorporated as 5′ neighbor of A: Cp (T7 RNA polymerase; [13]): 1.01 [1]
Composition of nucleotide incorporated as 5′ neighbor of A: Gp (T7 RNA polymerase; Entry 12, template temp35G-3, natural NTP 1 mM, Pa′ 3 mM, theoretical [2]): 1.98 [2]
Composition of nucleotide incorporated as 5′ neighbor of A: Up (T7 RNA polymerase; Entry 24, template DNA11, natural NTP 3 mM, Pa′ 3 mM, theoretical [0]): 0.09 [0]
Composition of nucleotide incorporated as 5′ neighbor of A: Np (Pa′p) (T7 RNA polymerase; Entry 24, template DNA11, natural NTP 3 mM, Pa′ 3 mM, theoretical [1]): 0.97 [1]
Composition of nucleotide incorporated as 5′ neighbor of A: Ap (T7 RNA polymerase; Entry 24, template DNA11, natural NTP 3 mM, Pa′ 3 mM, theoretical [5]): 5.08 [5]
Composition of nucleotide incorporated as 5′ neighbor of A: Gp (T7 RNA polymerase; Entry 24, template DNA11, natural NTP 3 mM, Pa′ 3 mM, theoretical [6]): 5.98 [6]
Composition of nucleotide incorporated as 5′ neighbor of A: Cp (T7 RNA polymerase; Entry 24, template DNA11, natural NTP 3 mM, Pa′ 3 mM, theoretical [7]): 6.88 [7]
Composition of nucleotide incorporated as 5′ neighbor of A: Up (T7 RNA polymerase; Entry 25, template DNA12, natural NTP 3 mM, Pa′ 3 mM, theoretical [0]): 0.07 [0]
Composition of nucleotide incorporated as 5′ neighbor of A: Np (Pa′p) (T7 RNA polymerase; Entry 25, template DNA12, natural NTP 3 mM, Pa′ 3 mM, theoretical [1]): 0.98 [1]
Composition of nucleotide incorporated as 5′ neighbor of A: Ap (T7 RNA polymerase; [14]): 6.05 [6]
Composition of nucleotide incorporated as 5′ neighbor of A: Gp (T7 RNA polymerase; [14]): 5.94 [6]
Composition of nucleotide incorporated as 5′ neighbor of A: Cp (T7 RNA polymerase; Entry 25, template DNA12, natural NTP 3 mM, Pa′ 3 mM, theoretical [7]): 6.96 [7]
Composition of nucleotide incorporated as 5′ neighbor of A: Np (Pa′p) (T7 RNA polymerase; Entry 27, template DNAcont4, natural NTP 3 mM, Pa′ 3 mM, theoretical [0]): n.d. [0]
Composition of nucleotide incorporated as 5′ neighbor of A: Up (T7 RNA polymerase; Entry 27, template DNAcont4, natural NTP 3 mM, Pa′ 3 mM, theoretical [1]): 1.06 [1]
Composition of nucleotide incorporated as 5′ neighbor of A: Ap (T7 RNA polymerase; [15]): 6.04 [6]
Composition of nucleotide incorporated as 5′ neighbor of A: Gp (T7 RNA polymerase; [15]): 6.00 [6]
Composition of nucleotide incorporated as 5′ neighbor of A: Cp (T7 RNA polymerase; Entry 27, template DNAcont4, natural NTP 3 mM, Pa′ 3 mM, theoretical [7]): 6.90 [7]
Composition of nucleotide incorporated as 5′ neighbor of U: Np (Pa′p) (T7 RNA polymerase; Entry 32, template DNA11, natural NTP 3 mM, Pa′ 3 mM, theoretical [0]): 0.01 [0]
Composition of nucleotide incorporated as 5′ neighbor of U: Ap (T7 RNA polymerase; Entry 32, template DNA11, natural NTP 3 mM, Pa′ 3 mM, theoretical [2]): 2.01 [2]
Composition of nucleotide incorporated as 5′ neighbor of U: Gp (T7 RNA polymerase; [16]): 3.98 [4]
Composition of nucleotide incorporated as 5′ neighbor of U: Up (T7 RNA polymerase; [16]): 4.00 [4]
Composition of nucleotide incorporated as 5′ neighbor of U: Cp (T7 RNA polymerase; Entry 32, template DNA11, natural NTP 3 mM, Pa′ 3 mM, theoretical [5]): 5.01 [5]
Composition of nucleotide incorporated as 5′ neighbor of U: Np (Pa′p) (T7 RNA polymerase; Entry 33, template DNA12, natural NTP 3 mM, Pa′ 3 mM, theoretical [0]): 0.01 [0]
Composition of nucleotide incorporated as 5′ neighbor of U: Ap (T7 RNA polymerase; Entry 33, template DNA12, natural NTP 3 mM, Pa′ 3 mM, theoretical [2]): 2.00 [2]
Composition of nucleotide incorporated as 5′ neighbor of U: Cp (T7 RNA polymerase; [17]): 4.05 [4]
Composition of nucleotide incorporated as 5′ neighbor of U: Gp (T7 RNA polymerase; [17]): 3.94 [4]
Composition of nucleotide incorporated as 5′ neighbor of U: Up (T7 RNA polymerase; [17]): 4.01 [4]
Composition of nucleotide incorporated as 5′ neighbor of U: Np (Pa′p) (T7 RNA polymerase; Entry 35, template DNAcont4, natural NTP 3 mM, Pa′ 3 mM, theoretical [0]): n.d. [0]
Composition of nucleotide incorporated as 5′ neighbor of U: Ap (T7 RNA polymerase; Entry 35, template DNAcont4, natural NTP 3 mM, Pa′ 3 mM, theoretical [2]): 2.02 [2]
Composition of nucleotide incorporated as 5′ neighbor of U: Gp (T7 RNA polymerase; [18]): 4.00 [4]
Composition of nucleotide incorporated as 5′ neighbor of U: Up (T7 RNA polymerase; [18]): 3.97 [4]
Composition of nucleotide incorporated as 5′ neighbor of U: Cp (T7 RNA polymerase; Entry 35, template DNAcont4, natural NTP 3 mM, Pa′ 3 mM, theoretical [5]): 5.01 [5]

Nc1ccn([C@H]2C[C@H](O)[C@@H](COP(=O)(O)OP(=O)(O)OP(=O)(O)O)O2)c(=O)n1 [dCTP, reference compound]
Efficiency (Vmax/KM) ([1]; template (N) = A): 1.8 × 10^3 % min^−1M^−1
Km ([1]; template (N) = A): 1200 µM
Vmax ([1]; template (N) = A): 2.2 % min^−1
Efficiency (Vmax/KM) ([1]; template (N) = Ds): 8.3 × 10^2 % min^−1M^−1
Km ([1]; template (N) = Ds): 410 µM
Vmax ([1]; template (N) = Ds): 0.34 % min^−1
Efficiency (Vmax/KM) ([1]; template (N) = G): 2.3 × 10^7 % min^−1M^−1
Km ([1]; template (N) = G): 0.24 µM
Vmax ([1]; template (N) = G): 5.5 % min^−1
inserted products (KM, Vmax n.d.) ([1]; template (N) = Pa): n.d.^c (Minimal inserted products (<2%) were detected after incubation for 20 minutes with 1500 μM nucleoside 5′-triphosphate and 50 nM enzyme.)
inserted products (KM, Vmax n.d.) ([1]; template (N) = Pa′): n.d. (Minimal inserted products (<2%) were detected after incubation for 20 minutes with 1500 μM nucleoside 5′-triphosphate and 50 nM enzyme.)
